This assay deals with T1, Human α-thrombin (Homo sapiens, UniProt P00734).
T1 construct: Human α-thrombin (Enzyme Research Laboratories HT1002a); purchased Enzyme Research Laboratories (South Bend, Ind.) HT1002a
Put plainly: In vitro inhibition of purified enzyme; kinetic analysis by chromogenic substrates. It counts as biochemical. As to conditions: substrate SucAAPR pNA 100 uM, Km=320 μM, Ki factor=0.76; 37° C., pH 7.5, 4% DMSO; thrombin 1.1 nM; Ki=IC50×Ki factor. As to the method: In Vitro Inhibition of Purified Enzyme
Reagents: All buffer salts were obtained from Sigma Chemical Company (St. Louis, Mo.), and were of the highest purity available.
Human α-thrombin, was obtained from Enzyme Research Laboratories (South Bend, Ind.).
Kinetic Analysis by Chromogenic Substrates
Compounds were assessed for their inhibitory activity toward Thrombin by kinetic analysis using para-nitroaniline chromogenic substrates monitored at 405 nm. The assay buffer employed was 50 mM HEPES, pH 7.5, 200 mM NaCl, and fresh 0.05% n-octyl β-d-glucopyranoside. DMSO was present at a final concentration of 4%, derived from the substrate and inhibitory compound stock solutions. […] Reactions were initiated by addition of 10 μL protease, and increase in absorbance due to proteolytic cleavage of substrate was kinetically monitored at 37° C., 405 nm with a Molecular Devices Spectramax 340 platereader. Initial velocities were determined by analysis of the initial linear portion of the reactions. Plots of vo/vi vs. inhibitor concentration, where vo=velocity without inhibitor, and vi=inhibited velocity, were fit to a linear regression line, and the IC50 was determined from the reciprocal of the slope. […]

pKi: −log10 of the molar value. Counter-ions that a name gives are not always drawn.

Drawing on US7262210B2, “Fluorinated pyridine N-oxide thrombin modulators and process for N-oxidation of nitrogen containing heteroaryls” (Janssen Pharmaceutica N.V., priority 2005, dated 2007), this text covers Ki for one compound.

The term pKi denotes −log10 of the Ki, conventionally taken in molar units.

Compound `N#Cc1cc(F)c(NCC(F)(F)c2ccccn2)[n+]([O-])c1CC(=O)NCc1ncccc1F` [Example 1, 2-[3-Cyano-6-(2,2-difluoro-2-pyridin-2-yl-ethylamino)-5-fluoro-1-oxy-pyridin-2-yl]-N-(3-fluoro-pyridin-2-ylmethyl)-acetamide dihydrochloride] showed a pKi of 7.96 to 8.01.
